Test results from publication PMC5910032 (ACS synthetic biology, 2018).

Columns and labels:
Format in all cases: binding
FITC-E2 scFv VH W118G [1] = assay: dose-dependent rescue of fluorescein quenching
FITC-E2 scFv VH W118G [2] = assay: SPR inhibition in solution assay
FITC-E2 scFv (wild-type) = assay: fluorescein fluorescence quenching, titration of purified scFv

Row | SMILES | EC50 (FITC-E2 scFv VH W118G [1]) [µM] | IC50 (FITC-E2 scFv VH W118G [2]) [µM] | EC50 (FITC-E2 scFv (wild-type)) [µM]
1 | c1ccc2[nH]ccc2c1 [indole] | 220 | – | –
2 | O=C1OC2(c3ccc(O)cc3Oc3cc(O)ccc32)c2ccccc21 [fluorescein] | – | 0.296 | 0.023 to 0.027
